From patent US20160271114A1, “Composition for preventing or treating bacterial infectious disease comprising phospholipase D2 inhibitor” (RESEARCH & BUSINESS FOUNDATION SUNGKYUNKWAN UNIVERSITY, priority 2015, published 2016)

Experiments:
CXCR2 = CXCR2 surface expression in LPS-stimulated neutrophils (flow cytometry); assay type: cell-based, mice; conditions: WT neutrophils, LPS 1 μg/ml; FIG. 17D, FIG. 20A
[1] = test system: neutrophils isolated from the bone marrow of WT mice; experiment: CXCL2-induced chemotactic migration of LPS-stimulated neutrophils; assay type: cell-based; conditions: LPS 1 μg/ml, FIG. 20B
GRK2 = experiment: LPS-induced GRK2 level in neutrophils (western blotting); assay type: cell-based, mice; conditions: WT neutrophils, LPS 1 μg/ml; CAY10594 at 10 μM; FIG. 18B, FIG. 19
Procedure: First, neutrophils were isolated from the bone marrow of WT or PLD2 knockout (KO) mice and stimulated with 1 μg/ml of LPS for 1 hour, and then GRK2 levels were analyzed by western blotting.
Afterward, neutrophils isolated from the bone marrow of the WT mice were cultured with 10 μM of a vehicle (0.5% Tween 80 in PBS) or a PLD2 inhibitor (CAY10594) before being cultured with LPS (1 μg/ml), and then GRK2 levels were analyzed by western blotting.
The control of LPS-induced GRK2 expression by an inhibitor for an intracellular signaling pathway (BAY11-7082) was analyzed by western blotting.

[2] = test system: neutrophils isolated from the bone marrow of the WT mice; experiment: NET formation in ionomycin-stimulated neutrophils (SYTOX Green staining); assay type: cell-based; conditions: 10 μM, then 5 μM ionomycin, FIG. 10B
Procedure: Neutrophils were isolated from the bone marrow of the WT or PLD2 knockout (KO) mice. More particularly, bone marrow cells were isolated from a femur and a tibia using an HBSS-EDTA solvent. A cell suspension was centrifuged at 400 g for 10 minutes, resuspended cells were loaded onto 52%, 69%, and 78% Percoll gradients, and centrifuged at 1500 g for 30 minutes without breaking. The cells were isolated on a 69%/78% interface layer, and RBCs were removed by hypotonic lysis. 95% or more of the isolated cells were identified to be Ly6G-positive using a flow cytometer. The isolated neutrophils (1×10^5 cells) were seeded on 0.001% poly-lysine-coated 12-mm cover slips of 24-well plates, and stimulated with 5 μM ionomycin. Afterward, the cells were fixed with 4% paraformaldehyde and stained by SYTOX Green nucleic acid staining (5 μM). The NET was visualized using a Zeiss Axiovert fluorescent microscope (Zeiss, Oberkochen, Germany), and images were taken by a Nikon Digital camera.
Additionally, to confirm the variations of NET formation when a PLD2 inhibitor was treated, neutrophils isolated from the bone marrow of the WT mice were cultured with 10 μM of a vehicle (0.5% Tween 80 in PBS) or a PLD2 inhibitor (CAY10594), and then stimulated with 5 μM ionomycin.

[3] = test system: spleen cells isolated from the WT mice; experiment: LPS-induced inflammatory cytokine/chemokine production in spleen cells (ELISA); assay type: cell-based; conditions: 10 μM for 30 minutes before LPS (1 μg/ml) for 24 hours; compared with vehicle; FIG. 5B
Procedure: Spleen cells (3×10^6 cells/0.3 ml) isolated from WT or PLD2 knockout (KO) mice were cultured in RPMI 1640 medium containing 5% fetal bovine serum (FBS) in 96-well plates and placed in a 5% CO2 incubator at 37° C. Afterward, the spleen cells were incubated with LPS (1 μg/ml) for 24 hours, and the expression of cytokines and chemokines in the spleen cells was measured by ELISA (e-Bioscience, San Diego, Calif.).
Additionally, to examine the effect of a PLD2 inhibitor on cytokine and chemokine production, before additional culturing with LPS (1 μg/ml) for 24 hours, the spleen cells isolated from the WT mice were cultured with 10 μM of a vehicle (0.5% Tween 80 in PBS) or a PLD2 inhibitor (CAY10594) for 30 minutes. A cell-free supernatant was collected and centrifuged, and the cytokines and the chemokines were detected by ELISA (e-Bioscience, San Diego, Calif.) according to the manufacturer's instructions.

WT neutrophils = experiment: Ionomycin-induced intracellular calcium mobilization (Fura-2/AM); assay type: cell-based, mice; conditions: 10 μM before 5 μM ionomycin, FIG. 15
Procedure: Subsequently, for individual analysis, the cells were aliquoted (2×10^6 cells/1 ml of Locke's solution containing 154 mM NaCl, 5.6 mM KCl, 1.2 mM MgCl2, 5 mM HEPES [pH 7.3], 10 mM glucose, and 2 mM CaCl2). Afterward, the cells were stimulated with 5 μM ionomycin. Meanwhile, to check the case of the treatment with a PLD2 inhibitor, the cells aliquoted from the WT mouse were cultured with 10 μM of a vehicle (0.5% Tween 80 in PBS) or a PLD2 inhibitor (CAY10594) before being stimulated with ionomycin. A fluorescence change at an emission wavelength of 500 nm was measured using an RF-5301PC spectrofluorophotometer (Shimadzu Instruments Inc., Kyoto, Japan) at excitation wavelengths of 340 nm and 380 nm A [Ca^2+]i increase causes an increase in the fluorescence ratio at an excitation efficiency of 340 to 380 nm, and [Ca^2+]i was calculated using the fluorescence ratio according to Equation 5 of Grynkiewicz et al (Grynkiewicz et al., 1985).

CLP mice = experiment: Survival rate in CLP-induced sepsis models, WT mice; assay type: in vivo; conditions: WT mice after CLP surgery; 10 mg/kg subcutaneous at 2, 14, 26 and 38 hours; monitored for 10 days; FIG. 1B
Procedure: (§1) C57Bl/6 mice were obtained from Orient Bio (Seongnam, Korea). PLD2 knockout (KO) mice were prepared by the method described in a previous study (Ghim, J., J. S. Moon, C. S. Lee, J. Lee, P. Song, A. Lee, J. H. Jang, D. Kim, J. H. Yoon, Y. J. Koh, C. Chelakkot, B. J. Kang, J. M. Kim, K. L. Kim, Y. R. Yang, Y. Kim, S. H. Kim, D. Hwang, P. G. Suh, G. Y. Koh, Y. Y. Kong, and S. H. Ryu, 2014, “Endothelial deletion of phospholipase D2 reduces hypoxic response and pathological angiogenesis,” Arterioscler. Thromb. Vasc. Biol., 34:1697-1703.) All experiments involving animals received the approval of the Institutional Review Committee for Animal Care and Use at the medical school of Sungkyunkwan University. Cecal ligation and puncture (CLP) sepsis models were prepared by the method described in a previous study (Kim, S. D., H. Y. Lee, J. W. Shim, H. J. Kim, Y. H. Yoo, J. S. Park, S. H. Baek, B. A. Zabel, and Y. S. Bae, 2011, “Activation of CXCR2 by extracellular matrix degradation product acetylated Pro-Gly-Pro has therapeutic effects against sepsis,” Am. J. Respir. Crit. Care Med., 184:243-251.) That is, mice were anesthetized with 50 mg/kg of Zoletil and 10 mg/kg of Rompun through intraperitoneal injection, and an abdominal midline incision was made to expose the cecum. […]

PLD2 knockout (KO) mice = experiment: Survival rate of PLD2 knockout (KO) mice after CLP surgery with CXCR2 antagonist treatment; assay type: in vivo; conditions: treated with the CXCR2 antagonist, FIG. 21
Procedure: as §1

Row | Structure (SMILES) | downregulation of LPS-induced CXCR2 (CXCR2) | CXCL2-induced chemotactic migration of the neutrophils by LPS stimulation [1] | upregulation of LPS-induced GRK2 / LPS-induced GRK2 expression (GRK2) | NET formation caused by ionomycin stimulation [2] | CCL5 secretion [3] | CXCL1 secretion [3] | IL-1β secretion [3] | IL-6 secretion [3] | TNF-α secretion [3] | ionomycin-induced intracellular calcium mobilization (WT neutrophils) | survival rate (CLP mice) | survival of PLD2 knockout (KO) mice after CLP surgery (PLD2 knockout (KO) mice)
1 | Cc1ccc(S(=O)(=O)/C=C/C#N)cc1 [BAY11-7082] | significantly diminished | partially but significantly recovered | completely inhibited | – | – | – | – | – | – | – | – | –
2 | O=C(NCCN1CCC2(CC1)C(=O)NCN2c1ccccc1)c1ccc2ccccc2c1 [CAY10594, N-[2-(4-oxo-1-phenyl-1,3,8-triazaspiro[4,5]decan-8-yl)ethyl]-2-naphthalenecarboxamide] | recovered | – | blocked | increased | considerably decreased | considerably decreased | considerably decreased | considerably decreased | considerably decreased | improved | 40% | –
3 | O=C(Nc1ccc([N+](=O)[O-])cc1O)Nc1ccccc1Br [SB225002] | – | – | – | – | – | – | – | – | – | – | – | all of the mice died
